Laboratory results reported in ChEMBL document CHEMBL5352429, “Designed symmetrical β-hairpin peptides for treating multidrug-resistant salmonella typhimurium infections” (Eur J Med Chem, 2022).
Values after ≈ are worked out from the molar mass of the structure shown. Active and inactive are the calls of the source. No cut-off for these calls is given here. Peptide text beside a SMILES is read from it.

Columns and labels:
Salmonella typhimurium [1] = test: Antibacterial activity against multi-drug resistant Salmonella typhimurium DT104 assessed as inhibition of bacterial growth at 0.5 to 2 times of MIC by MH agar based serial dilution method; assay type: functional, organism-based; conditions: Salmonella enterica subsp. enterica serovar Typhimurium, time <= 120.0 min, TDE = time-dependent effect
Salmonella typhimurium [2] = test: Antibacterial activity against Salmonella typhimurium DT104 in the presence of NaCl by MH broth based assay; assay type: functional, Salmonella enterica subsp. enterica serovar Typhimurium; conditions: Salmonella enterica
Salmonella typhimurium [3] = test: Antibacterial activity against Salmonella typhimurium DT104 ATCC 700408 incubated overnight by standard microtiter dilution method; assay type: functional, Salmonella enterica subsp. enterica serovar Typhimurium; conditions: Salmonella enterica
Escherichia coli = test: Antibacterial activity against Escherichia coli O157:H7 CICC 21530 incubated overnight by standard microtiter dilution method; assay type: functional
Salmonella typhimurium [4] = test: Antibacterial activity against Salmonella typhimurium DT104 in the presence of MgCl2 by MH broth based assay; assay type: functional, Salmonella enterica subsp. enterica serovar Typhimurium; conditions: Salmonella enterica
[5] = test system: Staphylococcus epidermidis; test: Antibacterial activity against methicillin-resistant Staphylococcus epidermidis ATCC 12228 incubated overnight by standard microtiter dilution method; assay type: functional
Lipopolysaccharide (LPS) = test: Displacement of BODIPY-TR-cadaverine from Salmonella typhimurium LPS assessed as increase in fluorescence intensity by fluorescence spectrophotometric analysis; conditions: Salmonella enterica subsp. enterica serovar Typhimurium; dose 0.25-8 µg/ml
Salmonella enteritidis = test: Antibacterial activity against Salmonella enteritidis CICC 21527 incubated overnight by standard microtiter dilution method; assay type: functional, Salmonella enterica subsp. enterica serovar Enteritidis; conditions: Salmonella enterica
Candida albicans = test: Antifungal activity against Candida albicans ATCC 10231 incubated overnight by standard microtiter dilution method; assay type: functional
Salmonella typhimurium [6] = test: Antibacterial activity against Salmonella typhimurium DT104 in the presence 25% inactivated mouse serum by MH broth based assay; assay type: functional, Salmonella enterica subsp. enterica serovar Typhimurium; conditions: Salmonella enterica
RAW264.7 [7] = test: Inhibition of LPS-stimulated TNF-alpha production in mouse RAW264.7 cells at 1 to 128 ug/ml incubated for 24 hrs by ELISA analysis; assay type: functional, cell-based; conditions: dose 1-128 µg/ml
Salmonella typhimurium [8] = test: Antibacterial activity against Salmonella typhimurium CICC 21483 incubated overnight by standard microtiter dilution method; assay type: functional, Salmonella enterica subsp. enterica serovar Typhimurium; conditions: Salmonella enterica
Salmonella typhimurium [9] = test: Antibacterial activity against Salmonella typhimurium DT104 in the presence of NH4Cl by MH broth based assay; assay type: functional, Salmonella enterica subsp. enterica serovar Typhimurium; conditions: Salmonella enterica
Enterococcus faecalis = test: Antibacterial activity against Enterococcus faecalis ATCC 29212 incubated overnight by standard microtiter dilution method; assay type: functional
Salmonella paratyphi = test: Antibacterial activity against Salmonella paratyphi A CICC 21501 incubated overnight by standard microtiter dilution method; assay type: functional, Salmonella enterica subsp. enterica serovar Paratyphi A; conditions: Salmonella enterica
[10] = Cytotoxicity against mouse RAW264.7 cells assessed as cell viability at 128 ug/ml incubated for 24 hrs by MTT assay; assay type: toxicity, cell-based; conditions: at 128 µg/mL, read-out: Activity
Salmonella typhimurium [11] = test: Antibacterial activity against Salmonella typhimurium DT104 in the presence of FeCl3 by MH broth based assay; assay type: functional, Salmonella enterica subsp. enterica serovar Typhimurium; conditions: Salmonella enterica
RAW264.7 [12] = test: Inhibition of LPS-stimulated IL-1beta production in mouse RAW264.7 cells at 1 to 128 ug/ml incubated for 24 hrs by ELISA analysis; assay type: functional, cell-based; conditions: dose 1-128 µg/ml
Salmonella typhimurium [13] = test: Antibacterial activity against multi-drug resistant Salmonella typhimurium DT104 assessed as inhibition of bacterial growth measured upto 120 mins by MH agar based serial dilution method; assay type: functional, organism-based; conditions: Salmonella enterica subsp. enterica serovar Typhimurium
[14] = Antibacterial activity against Salmonella enterica subsp. enterica serovar Choleraesuis ATCC 13312 incubated overnight by standard microtiter dilution method; assay type: functional
[15] = Antibacterial activity against Salmonella wandsworth CICC 21504 incubated overnight by standard microtiter dilution method; assay type: functional, Salmonella enterica subsp. enterica serovar Wandsworth; conditions: Salmonella enterica
RAW264.7 [16] = test: Inhibition of LPS-stimulated NO production in mouse RAW264.7 cells incubated for 24 hrs by Griess reagent based analysis; assay type: functional, cell-based; conditions: dose 1-128 µg/ml
Salmonella typhimurium [17] = test: Antibacterial activity against Salmonella typhimurium CICC 21913 incubated overnight by standard microtiter dilution method; assay type: functional, Salmonella enterica subsp. enterica serovar Typhimurium; conditions: Salmonella enterica
[18] = Hemolytic activity in human Red blood cells assessed as hemolysis at 128 ug/ml incubated for 1 hrs by absorbance based microplate reader analysis relative to control; assay type: toxicity, cell-based, Erythrocyte; conditions: red blood cells (erythrocytes), at 128 µg/mL, read-out: Activity
Salmonella typhimurium [19] = test: Antibacterial activity against Salmonella typhimurium DT104 in the presence 50% inactivated mouse serum by MH broth based assay; assay type: functional, Salmonella enterica subsp. enterica serovar Typhimurium; conditions: Salmonella enterica
[20] = Antibacterial activity against Salmonella dublin CICC 21497 incubated overnight by standard microtiter dilution method; assay type: functional, Salmonella enterica subsp. enterica serovar Dublin; conditions: Salmonella enterica
Salmonella typhimurium [21] = test: Antibacterial activity against Salmonella typhimurium DT104 in the presence of KCl by MH broth based assay; assay type: functional, Salmonella enterica subsp. enterica serovar Typhimurium; conditions: Salmonella enterica
[22] = Antibacterial activity against Salmonella blockley CICC 21489 incubated overnight by standard microtiter dilution method; assay type: functional, Salmonella enterica subsp. enterica serovar Blockley; conditions: Salmonella enterica
Salmonella typhimurium [23] = test: Antibacterial activity against Salmonella typhimurium DT104 in the presence of CaCl2 by MH broth based assay; assay type: functional, Salmonella enterica subsp. enterica serovar Typhimurium; conditions: Salmonella enterica
[24] = Antibacterial activity against Salmonella paratyphi C CICC 21512 incubated overnight by standard microtiter dilution method; assay type: functional, Salmonella enterica subsp. enterica serovar Paratyphi C; conditions: Salmonella enterica
[25] = test system: Salmonella enterica subsp. enterica serovar Paratyphi B; test: Antibacterial activity against Salmonella paratyphi B CICC 21495 incubated overnight by standard microtiter dilution method; assay type: functional
Staphylococcus aureus [26] = test: Antibacterial activity against methicillin-resistant Staphylococcus aureus ATCC 43300 incubated overnight by standard microtiter dilution method; assay type: functional
Erythrocyte = test: Hemolytic activity in human Red blood cells assessed as hemolysis incubated for 1 hrs by absorbance based microplate reader analysis; assay type: toxicity, cell-based
RAW264.7 [27] = test: Inhibition of LPS-stimulated IL-8 production in mouse RAW264.7 cells at 1 to 128 ug/ml incubated for 24 hrs by ELISA analysis; assay type: functional, cell-based; conditions: dose 1-128 µg/ml
Cell membrane [28] = test: Disruption of membrane integrity in Salmonella typhimurium DT104 assessed as increase in fluorescence intensity at 0.5 to 2 times of MIC incubated for 15 mins by PI staining based flow cytometric analysis; assay type: subcellular; conditions: Salmonella enterica subsp. enterica serovar Typhimurium
Staphylococcus aureus [29] = test: Antibacterial activity against Staphylococcus aureus ATCC 29213 incubated overnight by standard microtiter dilution method; assay type: functional
[30] = Antibacterial activity against Salmonella enterica subsp. enterica serovar Choleraesuis CICC 21493 incubated overnight by standard microtiter dilution method; assay type: functional
[31] = Cytotoxicity against mouse RAW264.7 cells infected with Salmonella typhimurium DT104 assessed as cell viability at 1 times of MIC measured at 180 min by MTT assay; assay type: toxicity, cell-based; conditions: RAW264.7 cells infected with Salmonella typhimurium DT104, read-out: Activity
Cell membrane [32] = test: Induction of cytoplasmic membrane depolarization in Salmonella typhimurium DT104 assessed as increase in fluorescence intensity at 2 times of MIC incubated for 15 mins by DiSC3-5 dye based fluorescence method; assay type: subcellular; conditions: Salmonella enterica subsp. enterica serovar Typhimurium
Salmonella typhimurium [33] = test: Antibacterial activity against Salmonella typhimurium DT104 infected in mouse RAW264.7 cells assessed as reduction in bacterial cells at 1 times of MIC measured for 180 mins by MH agar based serial dilution method; assay type: functional, organism-based; conditions: Salmonella enterica subsp. enterica serovar Typhimurium

Compound | Activity (Salmonella typhimurium [1]) | MIC (Salmonella typhimurium [2]) [µg/mL] | MIC (Salmonella typhimurium [3]) [µg/mL] | MIC (Escherichia coli) [µg/mL] | MIC (Salmonella typhimurium [4]) [µg/mL] | MIC [5] [µg/mL] | Activity (Lipopolysaccharide (LPS)) | MIC (Salmonella enteritidis) [µg/mL] | MIC (Candida albicans) [µg/mL] | MIC (Salmonella typhimurium [6]) [µg/mL] | inhibition (RAW264.7 [7]) | MIC (Salmonella typhimurium [8]) [µg/mL] | MIC (Salmonella typhimurium [9]) [µg/mL] | MIC (Enterococcus faecalis) [µg/mL] | MIC (Salmonella paratyphi) [µg/mL] | MIC (Salmonella typhimurium [11]) [µg/mL] | inhibition (RAW264.7 [12]) | Activity (Salmonella typhimurium [13]) | MIC [14] [µg/mL] | MIC [15] [µg/mL] | also measured
C[C@@H](O)[C@H](NC(=O)[C@H](CS)NC(=O)[C@H](CCCCN)NC(=O)[C@H](Cc1c[nH]c2ccccc12)NC(=O)[C@H](CCCCN)NC(=O)[C@H](Cc1c[nH]c2ccccc12)NC(=O)[C@H](CCCCN)NC(=O)[C@@H](N)Cc1c[nH]c2ccccc12)C(=O)N[C@@H](CCCCN)C(=O)N[C@@H](CO)C(=O)NCC(=O)N[C@@H](CS)C(=O)N[C@@H](CCCCN)C(=O)N[C@@H](Cc1c[nH]c2ccccc12)C(=O)N[C@@H](CCCCN)C(=O)N[C@@H](Cc1c[nH]c2ccccc12)C(=O)N[C@@H](CCCCN)C(=O)N[C@@H](Cc1c[nH]c2ccccc12)C(N)=O (H-WKWKWKCTKSGCKWKWKW-NH2) | Tde | > 128 | 32 (≈ 12.9 µM) | 4 (≈ 1.61 µM) | > 128 | 4 (≈ 1.61 µM) | Dose-Dependent Effect | 16 (≈ 6.44 µM) | 32 (≈ 12.9 µM) | 64 (≈ 25.8 µM) | Active | 32 (≈ 12.9 µM) | > 128 | 2 (≈ 0.805 µM) | 4 (≈ 1.61 µM) | > 128 | Active | Dose-Dependent Effect | 0.5 (≈ 0.201 µM) | 4 (≈ 1.61 µM) | viability at 24 h, 128 ug/ml [10]: 36.6%; inhibition (RAW264.7 [16]): Dose-Dependent Effect; MIC (Salmonella typhimurium [17]): 4 µg/mL (≈ 1.61 µM); hemolysis at 1 h, 128 ug/ml [18]: 30.8%; MIC (Salmonella typhimurium [19]): 128 µg/mL (≈ 51.5 µM); MIC [20]: 8 µg/mL (≈ 3.22 µM); MIC (Salmonella typhimurium [21]): > 128 µg/mL; MIC [22]: > 128 µg/mL; MIC (Salmonella typhimurium [23]): > 128 µg/mL; MIC [24]: 4 µg/mL (≈ 1.61 µM); MIC [25]: 1 µg/mL (≈ 0.403 µM); MIC (Staphylococcus aureus [26]): 4 µg/mL (≈ 1.61 µM); MHC (Erythrocyte): 32 µg/mL; inhibition (RAW264.7 [27]): Active; Activity (Cell membrane [28]): Active; MIC (Staphylococcus aureus [29]): 4 µg/mL (≈ 1.61 µM); MIC [30]: 16 µg/mL (≈ 6.44 µM)
CC(C)C[C@H](NC(=O)[C@H](CCCCN)NC(=O)[C@H](CC(C)C)NC(=O)[C@H](CCCCN)NC(=O)[C@H](CS)NC(=O)CNC(=O)[C@H](CO)NC(=O)[C@H](CCCCN)NC(=O)[C@@H](NC(=O)[C@H](CS)NC(=O)[C@H](CCCCN)NC(=O)[C@H](CC(C)C)NC(=O)[C@H](CCCCN)NC(=O)[C@@H](N)CC(C)C)[C@@H](C)O)C(N)=O (H-LKLKCTKSGCKLKL-NH2) | Tde | 32 | 32 (≈ 20.5 µM) | 2 (≈ 1.28 µM) | 32 | 8 (≈ 5.12 µM) | Dose-Dependent Effect | 16 (≈ 10.2 µM) | 4 (≈ 2.56 µM) | 64 (≈ 41 µM) | Active | 16 (≈ 10.2 µM) | 16 | 32 (≈ 20.5 µM) | 4 (≈ 2.56 µM) | 128 | Active | Dose-Dependent Effect | 1 (≈ 0.64 µM) | 16 (≈ 10.2 µM) | viability at 3 h, 1 times of MIC [31]: > 90%; Activity (Cell membrane [32]): Active; Activity (Salmonella typhimurium [33]): Active; inhibition (RAW264.7 [16]): Dose-Dependent Effect; MIC (Salmonella typhimurium [17]): 64 µg/mL (≈ 41 µM); hemolysis at 1 h, 128 ug/ml [18]: < 10%; MIC (Salmonella typhimurium [19]): 64 µg/mL (≈ 41 µM); MIC [20]: 8 µg/mL (≈ 5.12 µM); MIC (Salmonella typhimurium [21]): 16 µg/mL; MIC [22]: 32 µg/mL (≈ 20.5 µM); MIC (Salmonella typhimurium [23]): 64 µg/mL; MIC [24]: 2 µg/mL (≈ 1.28 µM); MIC [25]: 2 µg/mL (≈ 1.28 µM); MIC (Staphylococcus aureus [26]): 16 µg/mL (≈ 10.2 µM); MHC (Erythrocyte): > 128 µg/mL; inhibition (RAW264.7 [27]): Active; Activity (Cell membrane [28]): Active; MIC (Staphylococcus aureus [29]): 32 µg/mL (≈ 20.5 µM); MIC [30]: 16 µg/mL (≈ 10.2 µM)
